Data from the NIST ThermoML archive (doi:10.1016/j.jct.2011.02.021).
± gives the expanded uncertainty stated by the source.

Assay: molar enthalpy of vaporization or sublimation
Conditions: 298.15 K; Crystal; drop microcalorimetry

| SMILES | molar enthalpy [kcal/mol] |
| --- | --- |
| Cc1cc(=O)cc(C)o1 [2,6-dimethyl-γ-pyrone] | 20.7 ± 0.717 |
| CCc1occc(=O)c1O [2-ethyl-3-hydroxy-4H-pyran-4-one] | 21.8 ± 0.956 |
